System: subjects with moderate-to-severe plaque psoriasis
Assay: IGA score, Example 1
Format: in vivo, human
Details: Week 16
Procedure: The Investigator's Global Assessment (IGA) documents the investigator's assessment of the participant's psoriasis at a given time point. Overall lesions are graded for induration, erythema, and scaling. The participant's psoriasis is assessed as cleared (0), minimal (1), mild (2), moderate (3), or severe (4).
This was a randomized, double-blind, placebo-controlled, dose-ranging, parallel group, multicenter, interventional study in subjects with moderate-to-severe plaque psoriasis. A target of 240 subjects were enrolled in this study with 40 subjects planned per intervention group.
Clinician-reported outcomes including Psoriasis Area and Severity Index (PASI), Body Surface Area (BSA), Investigator's Global Assessment (IGA), Nail Psoriasis Area and Severity Index (NAPSI), Fingernail Physician's Global Assessment (f-PGA), Static Physician's Global Assessment of Genitalia (s-PGA-G), Physician's Global Assessment of Hands and/or Feet (hf-PGA), and Scalp Specific Investigator Global Assessment (ss-IGA) were obtained at Week 0, 8, and 16. PASI and IGA were also obtained at Weeks 1, 2, 4, and 12, and at Week 20, four weeks after the administration of the tablets has stopped.

[1] = 25 mg BID, peak plasma conc. <Q1, N=2
[2] = 25 mg BID, peak plasma conc. Q1 to <Q2, N=2
[3] = 25 mg BID, peak plasma conc. Q2 to <Q3, N=2
[4] = 25 mg BID, peak plasma conc. ≥Q3, N=2
[5] = 25 mg BID, trough plasma conc <Q1
[6] = 25 mg BID, trough plasma conc Q1 to <Q2
[7] = 25 mg BID, trough plasma conc Q2 to <Q3
[8] = 25 mg BID, trough plasma conc ≥Q3
[9] = 25 mg QD, peak plasma conc. <Q1, N=2
[10] = 25 mg QD, peak plasma conc. Q1 to <Q2, N=2
[11] = 25 mg QD, peak plasma conc. Q2 to <Q3, N=2
[12] = 25 mg QD, peak plasma conc. ≥Q3, N=2
[13] = 25 mg QD, trough plasma conc <Q1
[14] = 25 mg QD, trough plasma conc Q1 to <Q2
[15] = 25 mg QD, trough plasma conc Q2 to <Q3
[16] = 25 mg QD, trough plasma conc ≥Q3
[17] = 50 mg QD, peak plasma conc. <Q1, N=2
[18] = 50 mg QD, peak plasma conc. Q1 to <Q2, N=2
[19] = 50 mg QD, peak plasma conc. Q2 to <Q3, N=2
[20] = 50 mg QD, peak plasma conc. ≥Q3, N=2
[21] = 50 mg QD, trough plasma conc <Q1
[22] = 50 mg QD, trough plasma conc Q1 to <Q2
[23] = 50 mg QD, trough plasma conc Q2 to <Q3
[24] = 50 mg QD, trough plasma conc ≥Q3
[25] = 100 mg BID, peak plasma conc. <Q1, N=2
[26] = 100 mg BID, peak plasma conc. Q1 to <Q2, N=3
[27] = 100 mg BID, peak plasma conc. Q2 to <Q3, N=2
[28] = 100 mg BID, peak plasma conc. ≥Q3, N=3
[29] = 100 mg BID, trough plasma conc <Q1

CC(=O)NCCCC[C@@H]1NC(=O)[C@H](Cc2c[nH]c3c(C)cccc23)NC(=O)[C@H]([C@@H](C)O)NC(=O)[C@H](CC(N)=O)NC(=O)[C@@H](NC(C)=O)C(C)(C)SSC(C)(C)[C@@H](C(=O)N[C@@H](Cc2ccc(OCCN)cc2)C(=O)N[C@@H](Cc2ccc3ccccc3c2)C(=O)NC2(C(=O)N[C@@H](CCC(=O)O)C(=O)N[C@@H](CC(N)=O)C(=O)N[C@@H](Cc3cccnc3)C(=O)N(C)CC(N)=O)CCOCC2)NC1=O [IL-23 receptor antagonist peptide, Ac-[Pen]*-N-T-[W(7-Me)]-[Lys(Ac)]-[Pen]*-Phe[4-(2-aminoethoxy)]-[2-Nal]-[THP]-E-N-[3-Pal]-Sarc-NH2 (*[Pen]-[Pen]* formdisulfidebond)]
IGA 0 or 1 treatment difference vs placebo (25 mg BID): 39.5% (21.7%, | IGA 0 treatment difference vs placebo (25 mg BID): 14.6% (4.0%, | Subjects achieving IGA Score = 0 (25 mg BID): (14.6%) | Subjects achieving IGA Score = 0 or 1 (25 mg BID): (51.2%) | IGA score 0, % (25 mg BID, N=41): (14.6) % | IGA score 0/1, % (25 mg BID, N=41): (51.2) % | IGA Score = 0, n subjects [1]: 0 | IGA Score = 0 or 1, n subjects [1]: 0 | IGA Score = 0, n subjects [2]: 0 | IGA Score = 0 or 1, % subjects [2]: (50.0%) | IGA Score = 0 or 1, n subjects [2]: 1 | IGA Score = 0, n subjects [3]: 0 | IGA Score = 0 or 1, % subjects [3]: (50.0%) | IGA Score = 0 or 1, n subjects [3]: 1 | IGA Score = 0, % subjects [4]: (50.0%) | IGA Score = 0, n subjects [4]: 1 | IGA Score = 0 or 1, % subjects [4]: (50.0%) | IGA Score = 0 or 1, n subjects [4]: 1 | IGA Score = 0, subjects [5]: 2 (33.3%) | IGA Score = 0 or 1, subjects [5]: 4 (66.7%) | IGA Score = 0, subjects [6]: 1 (16.7%) | IGA Score = 0 or 1, subjects [6]: 1 (16.7%) | IGA Score = 0, subjects [7]: 0 | IGA Score = 0 or 1, subjects [7]: 4 (66.7%) | IGA Score = 0, subjects [8]: 2 (33.3%) | IGA Score = 0 or 1, subjects [8]: 100.0% | IGA 0 or 1 treatment difference vs placebo (25 mg QD): 27.9% (10.5%, | IGA 0 treatment difference vs placebo (25 mg QD): 16.3% (5.3%, | Subjects achieving IGA Score = 0 (25 mg QD): (16.3%) | Subjects achieving IGA Score = 0 or 1 (25 mg QD): (39.5%) | IGA score 0, % (25 mg QD, N=43): (16.3) % | IGA score 0/1, % (25 mg QD, N=43): (39.5) % | IGA Score = 0, n subjects [9]: 0 | IGA Score = 0 or 1, % subjects [9]: (50.0%) | IGA Score = 0 or 1, n subjects [9]: 1 | IGA Score = 0, n subjects [10]: 0 | IGA Score = 0 or 1, % subjects [10]: (50.0%) | IGA Score = 0 or 1, n subjects [10]: 1 | IGA Score = 0, % subjects [11]: (50.0%) | IGA Score = 0, n subjects [11]: 1 | IGA Score = 0 or 1, % subjects [11]: (50.0%) | IGA Score = 0 or 1, n subjects [11]: 1 | IGA Score = 0, n subjects [12]: 0 | IGA Score = 0 or 1, % subjects [12]: (50.0%) | IGA Score = 0 or 1, n subjects [12]: 1 | IGA Score = 0, subjects [13]: 1 (20.0%) | IGA Score = 0 or 1, subjects [13]: 2 (40.0%) | IGA Score = 0, subjects [14]: 2 (33.3%) | IGA Score = 0 or 1, subjects [14]: 3 (50.0%) | IGA Score = 0, subjects [15]: 0 | IGA Score = 0 or 1, subjects [15]: 1 (20.0%) | IGA Score = 0, subjects [16]: 1 (16.7%) | IGA Score = 0 or 1, subjects [16]: 4 (66.7%) | IGA 0 or 1 treatment difference vs placebo (50 mg QD): 46.5% (29.1%, | IGA 0 treatment difference vs placebo (50 mg QD): 34.9% (20.8%, | Subjects achieving IGA Score = 0 (50 mg QD): 15 (34.9%) | Subjects achieving IGA Score = 0 or 1 (50 mg QD): 25 (58.1%) | IGA score 0, % (50 mg QD, N=43): 34.9% | IGA score 0/1, % (50 mg QD, N=43): 58.1% | IGA Score = 0, n subjects [17]: 0 | IGA Score = 0 or 1, n subjects [17]: 0 | IGA Score = 0, % subjects [18]: (100.0%) | IGA Score = 0, n subjects [18]: 2 | IGA Score = 0 or 1, % subjects [18]: (100.0%) | IGA Score = 0 or 1, n subjects [18]: 2 | IGA Score = 0, n subjects [19]: 0 | IGA Score = 0 or 1, % subjects [19]: (100.0%) | IGA Score = 0 or 1, n subjects [19]: 2 | IGA Score = 0, n subjects [20]: 0 | IGA Score = 0 or 1, % subjects [20]: (100.0%) | IGA Score = 0 or 1, n subjects [20]: 2 | IGA Score = 0, subjects [21]: 1 (20.0%) | IGA Score = 0 or 1, subjects [21]: 2 (40.0%) | IGA Score = 0, subjects [22]: 3 (60.0%) | IGA Score = 0 or 1, subjects [22]: 4 (80.0%) | IGA Score = 0, subjects [23]: 2 (40.0%) | IGA Score = 0 or 1, subjects [23]: 2 (40.0%) | IGA Score = 0, subjects [24]: 2 (40.0%) | IGA Score = 0 or 1, subjects [24]: 3 (60.0%) | IGA 0 or 1 treatment difference vs placebo (100 mg BID): 52.8% (36.0%, | IGA 0 treatment difference vs placebo (100 mg BID): 45.3% (30.6%, | Subjects achieving IGA Score = 0 (100 mg BID): (45.2%) | Subjects achieving IGA Score = 0 or 1 (100 mg BID): (64.3%) | IGA score 0, % (100 mg BID, N=42): 45.2% | IGA score 0/1, % (100 mg BID, N=42): 64.3% | IGA Score = 0, % subjects [25]: (50.0%) | IGA Score = 0, n subjects [25]: 1 | IGA Score = 0 or 1, % subjects [25]: (100.0%) | IGA Score = 0 or 1, n subjects [25]: 2 | IGA Score = 0, % subjects [26]: (66.7%) | IGA Score = 0, n subjects [26]: 2 | IGA Score = 0 or 1, % subjects [26]: (66.7%) | IGA Score = 0 or 1, n subjects [26]: 2 | IGA Score = 0, % subjects [27]: (50.0%) | IGA Score = 0, n subjects [27]: 1 | IGA Score = 0 or 1, % subjects [27]: (50.0%) | IGA Score = 0 or 1, n subjects [27]: 1 | IGA Score = 0, % subjects [28]: (66.7%) | IGA Score = 0, n subjects [28]: 2 | IGA Score = 0 or 1, % subjects [28]: (100.0%) | IGA Score = 0 or 1, n subjects [28]: 3 | IGA Score = 0, subjects [29]: 1 (25.0%) | IGA Score = 0 or 1, subjects [29]: 3 (75.0%) | IGA Score = 0, subjects (100 mg BID, trough plasma conc Q1 to <Q2): 2 (40.0%)

Reference: patent US20260232767A1, “INTERLEUKIN-23 RECEPTOR ANTAGONIST PEPTIDES FOR USE IN THE TREATMENT OF PSORIASIS” (Janssen Pharmaceutica NV, priority 2023, published 2026)
